Experimental data reported in US7357916B2, “Method for creating a uniform vascular wound in zebrafish or zebrafish larva” (priority 2002, dated 2008).
Like-named read-outs stand apart in the source and are kept apart here.

Tests used:
[1] = tested on: zebrafish larvae; assay: Vascular occlusion by laser irradiation, time to occlusion (TTO); format: in vivo; settings: normal TTO 17±5.0 seconds; for Time to occlusion (TTO), laser irradiation assays: embryos microinjected with morpholino, screened at 3 dpf
Protocol: For laser irradiation treatment, 1 to 5 larvae (3 mm) were placed in 250 μL of water and anesthetized with 10 μl of Tricaine solution (300 μmol/L, Sigma, MO). 250 μL of 1% low-melting agarose solution (at 40° C.) were added to the anesthetized larvae and each larva, along with approximately 100 μL of agarose solution, was positioned inside a viewing well that was formed by placing a plastic ring on a glass microscope slide. Before treatment, water was allowed to soak into the agarose blocks to wash out the anesthetic. Pulsed nitrogen laser light pumped through coumarin 440 dye (445 nm) (MicroPoint Laser system, Photonic Instruments Inc, IL) at seven pulses/second was delivered to larvae for five seconds through a 10× objective on a Nikon Optiphot microscope. The progress of occlusion was recorded using a Nikon CoolPix 995 CCD camera.
Larvae at 2 and 3 dpf were treated with warfarin as described (Hanumanthaiah et al., 2001, specifically incorporated herein by reference) for 24 hours. Larvae were rinsed in water and tested with either chemical or laser methods of vessel injury. Morpholinos (Discovery Genomics Inc.) were designed against 5′-UTR around the translational start site of zebrafish factor VII (Sheehan et al., 2001, specifically incorporated herein by reference or factor VIIi (Hanumanthaiah et al., 2002, specifically incorporated herein by reference). Sequences were as follows:
For each morpholino a working solution (2 mg/mL) was prepared as previously described (Nasevicius & Ekker, 2000, specifically incorporated herein by reference). Embryos were generated by in vitro fertilization as described (Westerfield, 2000, specifically incorporated herein by reference) and 9 nL of either morpholino solution were injected into the yolk of embryos at the single to four cell stages. Control embryos were microinjected with an equal volume of PBS. Embryos were maintained at 28° C. and screened at 3 dpf.

[2] = tested on: zebrafish larvae
Protocol: (§1) For screening studies, larvae at three to five days postfertilization (dpf) were placed in 500 μL of water and an equal volume of phenylhydrazine (40 mmol/L phenylhydrazine HCl (PHZ), Sigma, MO) or FeCl3 (40 mmol/L) solution was added. Each larva, along with 9 μL of solution, was placed in a 3 mm×1 mm×3 mm well of an acrylic viewing chamber (narrow wells limited the motion of larvae for better viewing). For recording purposes, larvae were also immobilized in agarose, as described below, and 100 μl of either FeCl3 or PHZ were layered on top of the agarose block. Vascular occlusion was recorded using an inverted Olympus microscope equipped with a Javelin MOS solid-state camera (Japan) connected to a VHS recorder.

[3] = tested on: zebrafish larvae; assay: Vascular occlusion with phenylhydrazine, time to occlusion (TTO); format: in vivo
Protocol: as §1

[4] = tested on: erythrocytes; assay: Annexin V binding, flow cytometry of blood cells from treated adult zebrafish; format: in vivo; settings: 5 mmol/L for five minutes, FITC annexin V
Protocol: Adult zebrafish were placed in a 500 mL solution of phenylhydrazine (5 mmol/L phenylhydrazine HCl, pH 7.2 in 20 mmol/L Tris) or FeCl3 (5 mmol/L) for five minutes and then rinsed with de-ionized water. Two μL of blood were collected, as described (Jagadeeswaran et al., 2000a, specifically incorporated herein by reference), from control or treated zebrafish and blood cells were isolated by centrifugation of the blood sample at 800 g for two minutes, followed by removal of the supernatant. The cell pellet was washed once with 200 μL of PBS, centrifuged and resuspended in 200 μL of binding buffer (ApoAlert; Clontech, Calif.) followed by addition of 5 μL of FITC conjugated Annexin-V (Clontech, Calif.). Samples were incubated for ten minutes in dark at 25° C. and visualized ulsing a 20× UplanApo objective on an Olympus FV500 confocal microscope or processed by flow cytometry (Gregory & Jagadeeswaran, 2002).

[5] = larvae treated with warfarin for 24 hours

## 5′-CAAGCAGCAGACTC ATATTTACTGC-3′ (SEQ ID NO:1) (antisense CAAGCAGCAGACTCATATTTACTGC; all phosphorodiamidate morpholino (PMO)) [FVIIas]
[1]
  Time to occlusion (TTO), laser irradiation assays: 55 ± 9 s

## 5′-GTCACTGACCTCAGCCTGTTCACAA-3′ (SEQ ID NO:2) (morpholino, further chemistry not given here) [FVIIias]
[1]
  Time to occlusion (TTO), laser irradiation assays: 9 ± 3 s

## [Cl][Fe]([Cl])[Cl] [FeCl3, ferric chloride]
[2]; wild type larvae at three dpf, n=1000
  Time to occlusion (TTO) induced by the agent, mean±standard deviation: 6 ± 2 min

## CC(=O)CC(c1ccccc1)c1c(O)c2ccccc2oc1=O (centres unmarked) [Warfarin, warfarin]
[2]; larvae treated with warfarin for 24 hours, normal TTO 6±2 minutes
  Time to occlusion (TTO), FeCl3 injury: > 10 min
[3]; [5]
  Effect on TTO in phenylhydrazine induced vascular occlusion: did not affect TTO
[1]; [5]
  Time to occlusion (TTO), laser irradiation injury: > 1 min

## Cl.NNc1ccccc1 [phenylhydrazine, phenylhydrazine HCl]
[3]; wild type larvae at four dpf, n=500
  Time to occlusion (TTO) induced by the agent, mean±standard deviation: 10 ± 2.5 min
[4]
  Erythrocytes exhibiting externalization of PS: approximately 18%
